Reference: US10322995B2, “Substituted cyano cycloalkyl penta-2,4-dienes, cyano cycloalkyl pent-2-en-4-ynes, cyano heterocyclyl penta-2,4-dienes and cyano heterocyclyl pent-2-en-4-ynes as active substances against abiotic plant stress” (BAYER CROPSCIENCE AKTIENGESELLSCHAFT, priority 2014, dated 2019)

Experiments:
Brassica napus (BRSNS) = assay: In vivo analyses Part A: drought stress, visual damage scoring, efficacy EF (BRSNS); details: spray application 250 g/ha, efficacy = reduction in damage intensity
Experimental: (§1) Seeds of monocotyledonous and dicotyledonous crop plants were sown in sandy loam in wood-fibre pots, covered with soil or sand and cultivated in a greenhouse under good growth conditions. The test plants were treated at the early leaf stage (BBCH10-BBCH13). To assure uniform water supply before commencement of stress, the potted plants were supplied with water by dam irrigation prior to substance application. The inventive compounds, formulated in the form of wettable powders (WP), were sprayed onto the green parts of the plants as an aqueous suspension at an equivalent water application rate of 600 I/ha with addition of 0.2% wetting agent (e.g. agrotin). Substance application was followed immediately by stress treatment of the plants. For this purpose, the pots were transferred in plastic inserts in order to prevent them from subsequently drying out too quickly. Drought stress was induced by gradual drying out under the following conditions: “Day”: 14 hours with illumination at 26° C. “Night”: 10 hours without illumination at 18° C. The duration of the respective stress phases was guided mainly by the condition of the stressed control plants. It was ended (by re-irrigating and transfer to a greenhouse with good growth conditions) as soon as irreversible damage was observed on the stressed control plants. The end of the stress phase was followed by an about 4-7-day recovery phase, during which the plants were once again kept under good growth conditions in a greenhouse. The duration of the recovery phase was guided mainly by when the trial plants had attained a state which enabled visual scoring of potential effects, and was therefore variable. Once this juncture was reached, the intensities of damage were scored visually in comparison to untreated, unstressed controls of the same age. The damage intensity was at first assessed in percent. […]

Zea mays (ZEAMX) = assay: In vivo analyses Part A: drought stress, visual damage scoring, efficacy EF (ZEAMX); details: spray application 25 g/ha, efficacy = reduction in damage intensity
Experimental: Seeds of monocotyledonous and dicotyledonous crop plants were sown in sandy loam in wood-fibre pots, covered with soil or sand and cultivated in a greenhouse under good growth conditions. The test plants were treated at the early leaf stage (BBCH10-BBCH13). To assure uniform water supply before commencement of stress, the potted plants were supplied with water by dam irrigation prior to substance application. The inventive compounds, formulated in the form of wettable powders (WP), were sprayed onto the green parts of the plants as an aqueous suspension at an equivalent water application rate of 600 I/ha with addition of 0.2% wetting agent (e.g. agrotin). Substance application was followed immediately by stress treatment of the plants. For this purpose, the pots were transferred in plastic inserts in order to prevent them from subsequently drying out too quickly. Drought stress was induced by gradual drying out under the following conditions: “Day”: 14 hours with illumination at 26° C. “Night”: 10 hours without illumination at 18° C. The duration of the respective stress phases was guided mainly by the condition of the stressed control plants. […] Once this juncture was reached, the intensities of damage were scored visually in comparison to untreated, unstressed controls of the same age. The damage intensity was at first assessed in percent. […]

[1] = tested on: Triticum aestivum (TRZAS); assay: In vivo analyses Part A: drought stress, visual damage scoring, efficacy EF (TRZAS); details: spray application 25 g/ha, efficacy = reduction in damage intensity
Experimental: as §1

CCOC(=O)/C=C(/C)C#CC(O)(c1ccccc1)C1(C#N)CC1 (stereo not drawn) [I.1-236, Ethyl (2Z)-6-(1-cyanocyclopropyl)-6-hydroxy-3-methyl-6-phenylhex-2-en-4-ynoate]
>5%: EF [%] (BRSNS) (Brassica napus (BRSNS)) | EF [%] (ZEAMX) (Zea mays (ZEAMX)) | EF [%] (TRZAS) [1]
